Like-named read-outs stand apart in the source and are kept apart here.
Legend:
HCT116 cells [1] = experiment: MTT cytotoxicity assay on HCT116; assay type: cell-based; details: Homo sapiens
Method: (§1) Human colorectal carcinoma (HCT116) and African green monkey kidney epithelial cells (VERO) were procured from the National Centre for Cell Science, Pune, MH, India. The cells were maintained in Dulbecco's Modified Eagle's Medium (DMEM) (Sigma-Aldrich Co. LLC, ST. Louis, Mo, USA) supplemented with 10 % Fetal Bovine Serum (FBS) (HiMedia Laboratories, Mumbai, India) and 1 × Penicillin/Streptomycin at 37 °C in CO2 incubator (NU-5501 E/G, NuAire Inc., Plymoth, MN, USA) in humidified atmosphere of 5 % CO2 and 95 % air. The cells were maintained by routine sub-culturing in 25 cm^2 tissue culture flasks.
(§2) Cytotoxic potential of the test compounds were assessed using MTT assay (Kumar et al., 2016[9]). In brief, HCT116 and Vero cells were harvested from confluent flask and seeded (5 × 10^4 cells/well) in 96 well plates. After 24 h of incubation, the cells were exposed to different concentration of the test compounds for 48 h. Further, 50 µl of MTT reagent (HiMedia Laboratories, Mumbai, India) (2 mg/ml in sterile PBS) was added into each well after 48 h and incubated for 3 more h. The formazan crystals formed were solubilized using 100 % DMSO and the optical density was measured at 540 nm using micro plate reader (ELx800, BioTek Instruments Inc., Winooski, VT, USA).

Vero cells = experiment: MTT cytotoxicity assay on Vero; assay type: cell-based, African green monkey; details: Chlorocebus sabaeus, 48 h exposure
Method: as §1, §2

[2] = system: histone deacetylase (HDAC) enzyme; experiment: Whole cell HDAC enzyme assay; assay type: cell-based, human; details: HCT116 cells
Method: HCT116 cells were harvested and seeded in 96 well sterile, black well plates at 2 × 10^4 cells/well and incubated overnight. Further, the cells were treated with different concentration of the test compounds for a period of 18 h. Then, 15 mM Boc-Lys(Ac)-AMC substrate (Sigma Aldrich # SCP0168) was added and incubated for 1 h. The reaction was terminated by the addition of 50 µL of stop solution (trypsin 2 mg/ml, 1 % NP40, […]) in HDAC assay buffer (25 mM Tris-HCl (pH 8.0), 137 mM NaCl, 2.7 mM KCl, 1 mM MgCl2). The reaction was then allowed to proceed for 15 min at 37 °C after which, the fluorescence was measured at 360 nm excitation and 460 nm emission using fluorescence micro plate reader (FLx800, BioTek Instruments Inc., Winooski, VT, USA) (Reddy et al., 2015[18]).

HCT116 cells [3] = experiment: Acridine orange/Ethidium bromide (AO/EB) staining; assay type: cell-based, human; details: HCT116, 48 h, mean ± SEM of 100 cells
Method: AO/EB dual staining was performed in order to determine the apoptosis inducing potential of the selected test compounds in HCT116 cell line with few modifications (Kumar et al., 2016[9]). In brief, 5 × 10^5 cells were seeded in 6 wells plate containing 2 ml of medium and incubated for 24 h. After 24 h, cells were treated with the test compounds and incubated for 48 h. After 48 h of incubation, the wells were washed with phosphate buffer saline (PBS) and cells were fixed with ice cold ethanol (70 %) for 30 min. Ethanol was then removed and cells were washed again with PBS followed by the addition of 200 µl of AO/EB (20/30 µg/ml) stain in each well. The plate was later kept in the dark for 20 min. The excess stain was further washed thrice with PBS and observed for their fluorescence under a fluorescent microscope (Eclipse TS100-F, Nikon Instruments Inc., Melville, NY, USA).

HCT116 cells [4] = experiment: Annexin V assay (Muse Cell Analyzer); assay type: cell-based, human; details: HCT116, 48 h; 5-FU 20 μM, C1 25 μM, C2 70 μM, C3 70 μM
Method: Apoptosis determination by Annexin V staining was carried out using Muse Cell Analyzer with the kit provided by the manufacturer Merck Millipore. In brief, 1 × 10^6 cells were seeded in 60 mm tissue culture dish and after overnight adherence test compounds were added and incubated. After 48 h the cells were detached by trypsinization, centrifuged and resuspended. 100 µl of cell suspension was added with 100 µl of Annexin V reagent and incubated for 20 min at room temperature following which the cells were analyzed for apoptosis.

HCT116 cells [5] = experiment: Cell cycle analysis (propidium iodide, flow cytometry); assay type: cell-based, human; details: HCT116, 48 h treatment; for Cells in G2/M phase (M3): normal control 18.2 %
Method: The ability of the test compounds to arrest any phase of the cell cycle was determined using the described procedure (Reddy et al., 2015[18]). In this method, HCT116 cells were harvested and seeded at a density of 1 × 10^6 cell in 60 mm petri plate and incubated for 24 h. After 24 h cells were treated with test compounds for 48 h. Then the cells were washed with PBS, trypsinized and centrifuged. The cell pellets were later fixed in 70 % ice cold ethanol and stored at -20 °C for 24 h. After fixing, the pellet was dislodged in PBS and stained with propidium iodide solution. The cells were then analyzed using Accuri C6 flow cytometer with the threshold levels adjusted to remove the debris (BD Biosciences, San Jose, CA, USA) and data analysis were performed using BD Accuri™ C6 software.

[6] = system: DMH induced colorectal carcinoma; experiment: DMH (1,2-dimethyl hydrazine) induced colon cancer in Wistar rats; assay type: in vivo; details: test compounds 100 mg/kg p.o., 5-FU 10 mg/kg i.p., 21 days; for No. of ACF/5 cm^2: colon tissue, DMH control 81.6 ± 1.4; for No. of ACF/5 cm^2 / No. of adenocarcinoma: mean ± SEM, n=6; for TNF-α level in colon homogenate: ELISA, DMH control 20.2 ± 0.8, normal control 0.8 ± 0.1; for No. of adenocarcinoma: entire colon, DMH control 15 ± 1.2
Method: Test compound: Three test compounds, namely C1, C2 & C3 were suspended in 0.25 % sodium carboxy methyl cellulose (CMC) and were administered orally (p.o) with a dosing volume of 10 ml/kg.
Standard drug: 5-Fluorouracil (5-FU) was used as standard. It was procured in the form of injection and administered intraperitoneally (i.p) with a dosing volume of 10 ml/kg.
Induction of colon cancer was achieved using DMH according to a previously described procedure with few modifications (Perše and Cerar, 2005[15]). DMH at a dose of 30 mg/kg was administered i.p once a week for 20 weeks. The incidence of aberrant crypt foci (ACFs) and adenocarcinoma were confirmed by sacrificing a few of the animals after 20 weeks confirming the induction of colon cancer in experimental animals. Finally, the animals were randomized into five experimental groups based on their body weight.
Group 1 (normal control): Animals (n=6) were administered 0.25 % CMC in water p.o.
Group 2 (DMH control): Animals (n=6) were administered DMH
Group 3 (standard drug): Animals (n=6) received 5-FU 10 mg/kg i.p. for 21 days of study period
Group 4 (C1): Animals (n=6) received C1 at 100 mg/kg p.o for 21 days
Group 5 (C2): Animals (n=6) received C2 at 100 mg/kg p.o. for 21 days.
Group 6 (C3): Animals (n=6) received C3 at 100 mg/kg p.o. for 21 days.
The distal part of the colon, which was removed from the experimental animals after the study period was cut open and placed flat on a filter paper and fixed with 10 % buffered formalin for 12 h. Further, it was stained with 0.1 % methylene blue in PBS for 5 min. Specimens were later observed under microscope for ACF formation and were calculated as the number of counts/5 cm^2 in colon tissue. The entire colon was considered to study the incidence of adenocarcinoma. The growth was critically observed and the count and size were noted from each animal.
The levels of TNF-α were estimated in the colon of experimental animals, for which 10 % homogenate of colon tissue was prepared in tissue lysis buffer. The homogenate was centrifuged and the supernatant was collected to measure TNF-α levels using commercially available ELISA kits of rat TNF-α (# KRC3011, Invitrogen).
Length of the isolated colon was measured in centimeters and weight was measured in g. The colon length/weight (L/W) ratio was then calculated. Isolated spleen, kidney and heart of the experimental animals were also weighed in g and respective index was calculated.
Histopathology was carried out according to the described procedure (Reddy et al., 2015[18]). The stained slides were then analyzed under a microscope for any anatomical changes.
All the values were expressed as mean ± SEM of 6 animals. Data were analyzed using one-way ANOVA followed by Tukey's multiple comparison tests using Prism 5.03 (Graph Pad Software Inc., La Jolla, CA, USA). Values of p < 0.05 were considered to be significant.

[7] = 18 h treatment, mean ± SEM, triplicate, read-out: IC50 whole cell HDAC enzyme inhibition
[8] = read-out: IC50 inhibition of HDAC (unit inferred)
[9] = HCT-116, 48 h exposure, read-out: IC50 Value HCT116
[10] = HCT-116, 48 h of treatment, read-out: IC50 value on HCT116 cells

Row | IC50 [2, 7] [µM] | SMILES | IC50 (HCT116 cells [1]; HCT-116, 48 h, 48 h exposure, read-out: IC50 Value HCT116) [µM] | IC50 (Vero cells) [µM] | IC50 [2, 8] [µM] | IC50 (HCT116 cells [1]; [9]) [µM] | IC50 (HCT116 cells [1]; [10]) [µM] | % apoptotic cells (AO/EB staining) (HCT116 cells [3]) [%] | Total apoptotic cells (Annexin V) (HCT116 cells [4]) | Cells in S phase (M2) (HCT116 cells [5]; normal control 9.5 %) [%] | No. of ACF/5 cm^2 [6] | Early Apop. (Annexin V) (HCT116 cells [4]) [%] | TNF-α level in colon homogenate [6] | No. of adenocarcinoma [6] | Cells in G2/M phase (M3) (HCT116 cells [5]) [%]
1 | 826 ± 58.1 | O=C(O)c1ccc(C=CC(=O)c2c(O)cccc2O)cc1 [C6, 4-[3-(2,6-Dihydroxy-phenyl)-3-oxo-propenyl]-benzoic acid] | – | > 500 | – | > 500 | – | – | – | – | – | – | – | – | –
2 | 929 ± 56.6 | O=C(O)c1ccc(C=CC(=O)c2ccccc2O)cc1 [C3, 4-[3-(2-Hydroxy-phenyl)-3-oxo-propenyl]-benzoic acid] | – | 178 | – | 117 | < 200 | 38.7 ± 0.94 | 31.80 % of total cells | 12 | 73.6 ± 0.8 /5 cm^2 | – | – | – | –
3 | – | O=c1[nH]cc(F)c(=O)[nH]1 [5-FU, 5-Fluorouracil, reference compound] | – | – | – | – | – | 45 ± 0.87 | 38.08 % of total cells | – | 42.3 ± 1.4 /5 cm^2 | 15.86 | 16.09 ± 1.9 | 7 ± 0.5 | –
4 | 394 ± 12.9 | O=C(/C=C/c1ccc(O)cc1)c1ccccc1O [C2, 3-(4-Hydroxy-phenyl)-1-(2-hydroxy-phenyl)-propenone] | – | 88.3 | < 500 | 81.4 | < 200 | 40 ± 2.5 | 36.60 % of total cells | – | 60.0 ± 1.1 /5 cm^2 | 18 | – | – | 19.5
5 | 3.6 ± 0.2 | O=C(CCCCCCC(=O)Nc1ccccc1)NO [SAHA, reference compound] | – | – | – | – | – | – | – | – | – | – | – | – | –
6 | 160 ± 15.5 | CN(C)c1ccc(/C=C/C(=O)c2ccc(O)cc2O)cc1 [C5] | – | – | < 500 | – | – | – | – | – | – | – | – | – | –

Row | SMILES | IC50 [2, 7] [µM] | IC50 (HCT116 cells [1]; HCT-116, 48 h, 48 h exposure, read-out: IC50 Value HCT116) [µM] | IC50 (Vero cells) [µM] | IC50 [2, 8] [µM] | IC50 (HCT116 cells [1]; [9]) [µM] | IC50 (HCT116 cells [1]; [10]) [µM] | % apoptotic cells (AO/EB staining) (HCT116 cells [3]) [%] | Total apoptotic cells (Annexin V) (HCT116 cells [4]) | Cells in S phase (M2) (HCT116 cells [5]; normal control 9.5 %) [%] | No. of ACF/5 cm^2 [6] | Early Apop. (Annexin V) (HCT116 cells [4]) [%] | TNF-α level in colon homogenate [6] | No. of adenocarcinoma [6] | Cells in G2/M phase (M3) (HCT116 cells [5]) [%]
7 | CN(C)c1ccc(/C=C/C(=O)c2ccccc2O)cc1 [C4, 3-(4-Dimethylamino-phenyl)-1-(2-hydroxy-phenyl)-propenone] | 470 ± 11 | > 500 | > 500 | < 500 | – | – | – | – | – | – | – | – | – | –
8 | Cc1ccc(/C=C/C(=O)c2ccccc2O)cc1 [C1, 1-(2-Hydroxy-phenyl)-3-p-tolyl-propenone] | 105 | – | 26.3 | < 500 | – | – | 42.4 ± 2.25 | 37.70 % of total cells | – | 54.0 ± 0.5 /5 cm^2 | 5.85 | 6.18 ± 2.5 | 10 ± 0.8 | 25
